Data as given in patent US4725578A, “Compounds having therapeutic effect and the preparation thereof” (Tobishi Pharmaceutical Co., Ltd., priority 1986, dated 1988).

Test system: P-388 cells
Assay: Antineoplastic action against implanted P-388 cells (ip-ip), survival T/C
Format: in vivo, CDFl mice
Conditions: for T/C % (Treatment/Control %): Table 6, P388, intraperitoneal
Description: To the peritoneal cavity of each group of mice consisting of six CDFl mice per group, 10^6 /0.1 ml of P-388 cells or 10^5 /0.1 ml of L-1210 cells were implanted. […]
In the Table, the symbol T/C % means Treatment/Control %, that is the increase in life when the control is 100. […] This method is used in the screening of U.S. National Cancer Institute.
In Table 7, the symbol "i.P.-i.P." means that the tumor cells are implanted intraperitoneally and the compounds being tested are also administered intraperitoneally. The symbol "TR" is the therapeutic ratio obtained by dividing the dose which provides a maximum T/C value, by the dose which provides a minimum T/C value.

| Compound | T/C % (Treatment/Control %) (dose 0.05 mg/kg) | T/C % (Treatment/Control %) (dose 0.5 mg/kg) | T/C % (Treatment/Control %) (dose 2 mg/kg) | T/C % (Treatment/Control %) (dose 4 mg/kg) | T/C % (Treatment/Control %) (dose 10 mg/kg) | T/C (additional tests, P 388 (ip-ip), 0.5 mg/kg × 5, single agent) |
| --- | --- | --- | --- | --- | --- | --- |
| CCOc1ccc2cc1Oc1ccc(cc1)CC1C(=O)N(C)C(C2)C(=O)NC(C)C(=O)NC(C)C(=O)N(C)C(Cc2ccc(OC)cc2)C(=O)NC(C)C(=O)N1C (stereo not shown) [Ex. 3] | 137.3% | 165.4% | 162.2% |  |  |  |
| COc1ccc(CC2C(=O)NC(C)C(=O)N(C)C3Cc4ccc(cc4)Oc4cc(ccc4OC(C)C)CC(C(=O)NC(C)C(=O)NC(C)C(=O)N2C)N(C)C3=O)cc1 (stereo not shown) [Ex. 5] | 142.4% | 175.1% | 105.4% |  |  |  |
| CCCCCOc1ccc2cc1Oc1ccc(cc1)CC1C(=O)N(C)C(C2)C(=O)NC(C)C(=O)NC(C)C(=O)N(C)C(Cc2ccc(OC)cc2)C(=O)NC(C)C(=O)N1C (stereo not shown) [Ex. 7] | 122.2% | 142.7% | 165.4% |  |  |  |
| CCCCCCCOc1ccc2cc1Oc1ccc(cc1)CC1C(=O)N(C)C(C2)C(=O)NC(C)C(=O)NC(C)C(=O)N(C)C(Cc2ccc(OC)cc2)C(=O)NC(C)C(=O)N1C (stereo not shown) [Ex. 8] | 115.8% | 144.7% | 150.1% | 164.0% |  |  |
| CCCCCCCCOc1ccc2cc1Oc1ccc(cc1)CC1C(=O)N(C)C(C2)C(=O)NC(C)C(=O)NC(C)C(=O)N(C)C(Cc2ccc(OC)cc2)C(=O)NC(C)C(=O)N1C (stereo not shown) [Ex. 9] | 136.1% | 146.8% | 162.9% | 152.2% |  |  |
| CCCCCCCCCOc1ccc2cc1Oc1ccc(cc1)CC1C(=O)N(C)C(C2)C(=O)NC(C)C(=O)NC(C)C(=O)N(C)C(Cc2ccc(OC)cc2)C(=O)NC(C)C(=O)N1C (stereo not shown) [Ex. 10] | 112.5% | 141.5% | 150.1% | 155.4% |  |  |
| CCOC(=O)CCCOc1ccc2cc1Oc1ccc(cc1)CC1C(=O)N(C)C(C2)C(=O)NC(C)C(=O)NC(C)C(=O)N(C)C(Cc2ccc(OC)cc2)C(=O)NC(C)C(=O)N1C (stereo not shown) [Ex. 19(2), ethoxycarbonylpropylether (2) of TPC-A] | 113.8% | 139.6% | 141.7% | 153.1% |  |  |
| COc1ccc(CC2C(=O)NC(C)C(=O)N(C)C3Cc4ccc(cc4)Oc4cc(ccc4OC4CCCCO4)CC(C(=O)NC(C)C(=O)NC(C)C(=O)N2C)N(C)C3=O)cc1 (stereo not shown) [Ex. 20, tetrahydropyranylether of TPC-A] | 138.4% | 164.3% | 121.1% |  |  |  |
| CCC(=O)Oc1ccc2cc1Oc1ccc(cc1)CC1C(=O)N(C)C(C2)C(=O)NC(C)C(=O)NC(C)C(=O)N(C)C(Cc2ccc(OC)cc2)C(=O)NC(C)C(=O)N1C (stereo not shown) [Ex. 23] | 129.0% | 145.3% | 164.4% |  | 175.0% |  |
| CCCC(=O)Oc1ccc2cc1Oc1ccc(cc1)CC1C(=O)N(C)C(C2)C(=O)NC(C)C(=O)NC(C)C(=O)N(C)C(Cc2ccc(OC)cc2)C(=O)NC(C)C(=O)N1C (stereo not shown) [Ex. 24] | 125.1% | 144.2% | 155.9% |  | 170.0% |  |
| COc1ccc(CC2C(=O)NC(C)C(=O)N(C)C3Cc4ccc(cc4)Oc4cc(ccc4OC(=O)C(C)C)CC(C(=O)NC(C)C(=O)NC(C)C(=O)N2C)N(C)C3=O)cc1 (stereo not shown) [Ex. 25] | 124.1% | 150.7% | 155.9% |  | 183.5% |  |
| CC=CC(=O)Oc1ccc2cc1Oc1ccc(cc1)CC1C(=O)N(C)C(C2)C(=O)NC(C)C(=O)NC(C)C(=O)N(C)C(Cc2ccc(OC)cc2)C(=O)NC(C)C(=O)N1C (stereo not shown) [Ex. 26] | 124.1% | 148.5% | 162.3% |  | 186.6% |  |
| CCCCC(=O)Oc1ccc2cc1Oc1ccc(cc1)CC1C(=O)N(C)C(C2)C(=O)NC(C)C(=O)NC(C)C(=O)N(C)C(Cc2ccc(OC)cc2)C(=O)NC(C)C(=O)N1C (stereo not shown) [Ex. 27] | 117.9% | 149.5% | 157.9% |  | 171.6% |  |
| COc1ccc(CC2C(=O)NC(C)C(=O)N(C)C3Cc4ccc(cc4)Oc4cc(ccc4OC(=O)CCC(C)C)CC(C(=O)NC(C)C(=O)NC(C)C(=O)N2C)N(C)C3=O)cc1 (stereo not shown) [Ex. 40, 4-methyl valerate] | 111.6% | 133.9% | 152.1% |  |  |  |
| CCC(C)CC(=O)Oc1ccc2cc1Oc1ccc(cc1)CC1C(=O)N(C)C(C2)C(=O)NC(C)C(=O)NC(C)C(=O)N(C)C(Cc2ccc(OC)cc2)C(=O)NC(C)C(=O)N1C (stereo not shown) [Ex. 42] | 114.6% | 140.0% | 159.2% |  |  |  |
| CCCC(C)C(=O)Oc1ccc2cc1Oc1ccc(cc1)CC1C(=O)N(C)C(C2)C(=O)NC(C)C(=O)NC(C)C(=O)N(C)C(Cc2ccc(OC)cc2)C(=O)NC(C)C(=O)N1C (stereo not shown) [Ex. 43] | 116.6% | 142.0% | 154.2% |  |  |  |
| CCCC=CC(=O)Oc1ccc2cc1Oc1ccc(cc1)CC1C(=O)N(C)C(C2)C(=O)NC(C)C(=O)NC(C)C(=O)N(C)C(Cc2ccc(OC)cc2)C(=O)NC(C)C(=O)N1C (stereo not shown) [Ex. 44] | 116.6% | 150.1% | 165.3% |  |  |  |
| CCC=CCC(=O)Oc1ccc2cc1Oc1ccc(cc1)CC1C(=O)N(C)C(C2)C(=O)NC(C)C(=O)NC(C)C(=O)N(C)C(Cc2ccc(OC)cc2)C(=O)NC(C)C(=O)N1C (stereo not shown) [Ex. 45] | 121.7% | 145.0% | 162.3% |  |  |  |
| CO[C@@]12[C@H](COC(N)=O)C3=C(C(=O)C(C)=C(N)C3=O)N1C[C@@H]1N[C@@H]12 [Mitomycin, reference compound] |  |  |  |  |  | 198.2% |
